Measured values taken from patent US6613788B1, “Elevation of circulating blood histamine levels” (Maxim Pharmaceuticals, Inc., priority 1996, dated 2003).

Key:
H2-receptor [1] = molecular target: T1, H2-receptor (Homo sapiens, UniProt P25021); settings: cited from earlier work
H2-receptor [2] = molecular target: T1, H2-receptor; settings: cited from earlier work; remark: listed apart in the source
[3] = Experimental: Peripheral blood venous samples were drawn in 10 ml heparinized test tubes before the onset of treatment and weekly thereafter. […] The manufacturer's instructions provided with the kit, dated June, 1989, were followed. Blood histamine levels were measured at the indicated times.
[4] = Effect of rate and duration of histamine administration on side effects and efficacy; settings: administered over longer than about 30 minutes
[5] = system: herpes simplex virus (HSV) type 2; settings: animals inoculated intravenously with HSV; cited from earlier work
[6] = prior reports; cited from earlier work
[7] = system: Acute Myelogenous Leukernia; settings: IL-2 as the single agent; cited from earlier work

T1 sequence (P25021 whole entry): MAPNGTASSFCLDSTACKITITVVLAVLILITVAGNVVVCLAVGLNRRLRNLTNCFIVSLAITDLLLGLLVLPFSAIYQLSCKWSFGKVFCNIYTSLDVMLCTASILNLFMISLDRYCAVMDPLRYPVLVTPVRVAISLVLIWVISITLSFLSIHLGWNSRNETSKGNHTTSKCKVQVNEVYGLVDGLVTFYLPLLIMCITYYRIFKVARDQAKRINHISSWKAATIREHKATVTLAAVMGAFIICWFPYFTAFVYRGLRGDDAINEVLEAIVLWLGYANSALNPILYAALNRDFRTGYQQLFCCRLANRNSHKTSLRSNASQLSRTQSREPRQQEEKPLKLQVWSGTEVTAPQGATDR

CN(C)CCCSC(=N)N [dimaprit]
effect of histamine on granulocyte mediated suppression of antibody dependent cytotoxicity of NK cells (H2-receptor [1]): mimicked | NK cell mediated cytotoxicity (H2-receptor [2]): capable of augmenting NK cell mediated cytotoxicity

NCCc1c[nH]cn1 [histamine]
persistence of circulating blood histamine levels ([3]; even after histamine administration was discontinued): remained elevated for sustained periods of time | circulating blood histamine levels following histamine administration ([3]; histamine 0.4-0.7 mg s.c. twice daily with IL-2 for 21 days, samples at least 8 hours after last injection, beneficial = at least 0.2 μmole/L): rose to beneficial levels | efficacy on prolonged administration [4]: decreased or lack of efficacy | survival time [5]: prolong survival time | half life in the blood [6]: five

CNC(=C[N+](=O)[O-])NCCSCc1ccc(CN(C)C)o1 [ranitidine]
effect of histamine on granulocyte mediated suppression of antibody dependent cytotoxicity of NK cells (H2-receptor [1]): blocked

IL-2: cytokine synthesized by T cells; human recombinant interleukin-2 (Proleukin, Eurocetus)
fraction of AML patients with inversion of remission time [7]: < 10%
